Test results reported in patent publication US11744830B2, “Ameliorative agent for cytokine release syndrome and so on” (TORII PHARMACEUTICAL CO., LTD., priority 2018, dated 2023).
Where a name gives a salt, the structure may show the parent alone. Each block holds one compound with its values, some of them ahead of it.

Columns and labels:
[1] = test system: IFN-γ production from CD8^+ T cells; experiment: T-cell stimulation bead-induced IFN-γ production in CD8^+ T cells; assay type: cell-based, human; conditions: CD3/CD28 stimulation, 3 days
Procedure: (§1) Cryopreserved PBMCs were quickly thawed in a 37° C. thermostat and added to a tube containing medium. After centrifugation (at room temperature at 300 g for 10 minutes) to remove the supernatant, the cells were suspended in the medium, a portion of which was then mixed with a trypan blue solution to count the number of viable cells. The cell suspension was centrifuged (at room temperature at 300 g for 10 minutes) to remove the supernatant, followed by addition of MACS Buffer in a volume of 80 μL per 1×10^7 cells to suspend the cells, to which Human CD8 MicroBeads (20 μL) were further added. After being allowed to stand on ice for 15 minutes, the cell suspension was diluted with MACS Buffer (2 mL) and centrifuged (at room temperature at 300 g for 10 minutes) to remove the supernatant.
(§2) MACS Buffer (500 μL) was added to the tube, and the cells were suspended and then applied to a separatory column to separate CD8^+ cells. The CD8^+ cell fraction was diluted to 15 mL with the medium and then centrifuged (at room temperature at 300 g for 10 minutes). The supernatant was removed and the cells were suspended in the medium (1 mL), followed by counting the number of viable cells. The cell suspension adjusted with the medium to 1×10^6 cells/mL was seeded in a 96-well plate in a volume of 100 μL/well (1×10^5 cells/well) and allowed to stand in a CO2 incubator for 1 to 2 hours.
The collected culture supernatants were quantified for IFN-γ using Human IFN-γ DuoSet ELISA.

[2] = test system: TNF-α production from CD8^+ T cells; experiment: T-cell stimulation bead-induced TNF-α production in CD8^+ T cells; assay type: cell-based, human; conditions: CD3/CD28 stimulation, 3 days
Procedure: as §1, §2
The culture supernatants collected in 1.2.1 were quantified for TNF-α using Human TNF-α DuoSet ELISA.

[3] = test system: MCP-1 production from CD14^+ cells; experiment: LPS stimulation-induced MCP-1 production in CD14^+ cells; assay type: cell-based; conditions: Homo sapiens, 72 h, LPS 3 ng/mL, 3 days
Procedure: as §1, with “suspended again” for “suspended”, “followed by counting” for “a portion of which was then mixed with a trypan blue solution to count”, “Buffer” for “Buffer in a volume of 80 μL per 1×10^7 cells”, “CD14” for “CD8”, “MicroBeads” for “MicroBeads (20 μL)”, “Buffer” for “Buffer (2 mL)”
(§3) MACS Buffer was added to the tube, and the cells were suspended and then applied to a separatory column to separate CD14^+ cells. The CD14^+ cell fraction was diluted with the medium and then centrifuged (at room temperature at 300 g for 10 minutes). The supernatant was removed and the cells were suspended in the medium (1 mL), followed by counting the number of viable cells. The cell suspension was adjusted with the medium to 2.4×10^5 or 3×10^5 cells/mL and seeded in a 96-well plate (2.4×10^4 cells/well), which was then allowed to stand in a CO2 incubator for 1 to 2 hours.
The collected culture supernatants were quantified for MCP-1 using Human CCL2/MCP-1 DuoSet ELISA.

[4] = test system: TNF-α production from CD14^+ cells; experiment: LPS stimulation-induced TNF-α production in CD14^+ cells; assay type: cell-based, human; conditions: for IC50: LPS 3 ng/mL, 3 days
Procedure: as §1, with “suspended again” for “suspended”, “followed by counting” for “a portion of which was then mixed with a trypan blue solution to count”, “Buffer” for “Buffer in a volume of 80 μL per 1×10^7 cells”, “CD14” for “CD8”, “MicroBeads” for “MicroBeads (20 μL)”, “Buffer” for “Buffer (2 mL)”
as §3
(§4) The culture supernatants collected in 1.2.2 were quantified for TNF-α using Human TNF-α DuoSet ELISA.

[5] = test system: IL-6 production from PBMCs; experiment: LPS stimulation-induced IL-6 production in PBMCs; assay type: cell-based; conditions: Homo sapiens, PBMC, 72 h, LPS 3 ng/mL, 3 days
Procedure: (§5) Cryopreserved PBMCs were quickly thawed in a 37° C. thermostat and added to a tube containing medium. After centrifugation (at room temperature at 300 g for 10 minutes) to remove the supernatant, the cells were suspended again in the medium (10 mL), followed by counting the number of viable cells. After centrifugation (at room temperature at 300 g for 10 minutes) to remove the supernatant, the medium was added to suspend the cells at 1×10^6 cells/mL. This cell suspension was seeded in a 96-well plate in a volume of 100 μL/well (1×10^5 cells/well). […] The cells were cultured in a CO2 incubator for 3 days to collect the culture supernatants.
The collected culture supernatants were quantified for IL-6 using Human IL-6 DuoSet ELISA.

[6] = test system: TNF-α production in PBMCs; experiment: LPS stimulation-induced TNF-α production in PBMCs; assay type: cell-based; conditions: Homo sapiens, PBMC
Procedure: as §5, §4

IL-6 production = experiment: CRS toxicity evaluation system using CAR-T cells: IL-6; assay type: cell-based, human; conditions: for IC50: Homo sapiens, Monocyte, CAR-T cells, target cells and monocytes, 72 hours
Procedure: (§6) The supernatants were collected at 72 hours after the initiation of culture, and various cytokines in each supernatant were measured by FACS multiplex assay.

IFN-γ production = experiment: CRS toxicity evaluation system using CAR-T cells: IFN-γ; assay type: cell-based; conditions: Homo sapiens, Monocyte, target cells and monocytes, 72 hours
Procedure: as §6

MCP-1 production = experiment: CRS toxicity evaluation system using CAR-T cells: MCP-1; assay type: cell-based, human; conditions: Homo sapiens, Monocyte; CAR-T cells, target cells and monocytes, 72 hours
Procedure: as §6

TNF-α production = experiment: CRS toxicity evaluation system using CAR-T cells: TNF-α; assay type: cell-based, human; conditions: for IC50: Homo sapiens, Monocyte, CAR-T cells, target cells and monocytes, 72 hours
Procedure: as §6

IL-1β production = experiment: CRS toxicity evaluation system using CAR-T cells: IL-1β; assay type: cell-based, human; conditions: for IC50: Homo sapiens, Monocyte, CAR-T cells, target cells and monocytes, 72 hours
Procedure: as §6

IL-18 production = experiment: CRS toxicity evaluation system using CAR-T cells: IL-18; assay type: cell-based; conditions: Homo sapiens, Monocyte, target cells and monocytes, 72 hours, reference data because of low production
Procedure: as §6

[7] = test system: VEGF production from macrophages; experiment: LPS stimulation-induced VEGF production in macrophages; assay type: cell-based, human
Procedure: CD14^+ cells were cultured in 20 ng/mL M-CSF-containing RPMI medium at 37° C. for 5 days to induce differentiation into macrophages (during which the medium was replaced once every two days with fresh 20 ng/mL M-CSF-containing RPMI medium). […] The macrophages were then stimulated with LPS (final concentration: 100 ng/mL) or RPMI medium alone at 37° C. for 3 days, followed by collecting the culture supernatants. The collected culture supernatants were quantified for VEGF using Human VEGF DuoSet ELISA.

[8] = test system: IL-6, IL-8 and other inflammatory cytokines; conditions: phase I study, LPS loading; cited from earlier work
[9] = test system: acute myeloid leukemia (AML) cell lines; conditions: in vitro system; cited from earlier work
[10] = CRS toxicity evaluation system using CAR-T cells

IC50 [1]: 0.149 µM
IC50 ([1]; Homo sapiens, T-cell, 72 h): 0.149 µM
IC50 [2]: 0.035 µM
IC50 ([2]; Homo sapiens, T-cell, 72 h): 0.0348 µM
IC50 [3]: 6.6 µM
IC50 ([4]; Homo sapiens, 72 h): 0.0417 µM
IC50 [4]: 0.042 µM
SMILES: C[C@]12C=CC(=O)C=C1CC[C@@H]1[C@@H]2[C@@H](O)C[C@@]2(C)[C@H]1CC[C@]2(O)C(=O)CO [PSL, Prednisolone]
IC50 [5]: 0.176 µM
IC50 [6]: 0.073 µM
suppressive effect on IL-6 production (IL-6 production; [10]): no suppressive effect
IC50 (IL-6 production): > 10 µM
IC50 (IFN-γ production): 0.88 µM
IC50 (MCP-1 production): 71.8 µM
suppressive effect on TNF-α (TNF-α production; [10]): no suppressive effect
IC50 (TNF-α production): > 100 µM
suppressive effect on IL-1β (IL-1β production; [10]): no suppressive effect
IC50 (IL-1β production): > 100 µM
IC50 (IL-18 production): > 100 µM

SMILES: CCOC(=O)[C@H](Cc1ccccc1)NC(=O)c1cc(Cl)c(OCCN2CCN(C)CC2)c(Cl)c1O [JTE-607, (−)-ethyl N-{3,5-dichloro-2-hydroxy-4-[2-(4-methylpiperazin-1-yl)ethoxy]benzoyl}-L-phenylalaninate dihydrochloride]
IC50 ([1]; Homo sapiens, T-cell, 72 h): > 0.3 µM
IC50 ([2]; dihydrochloride): 0.231 µM
IC50 ([2]; Homo sapiens, T-cell, 72 h): 0.231 µM
IC50 [3]: 0.0213 µM
IC50 ([4]; Homo sapiens, 72 h): > 0.3 µM
suppressive effect on TNF-α production ([4]; LPS): suppressive effect in a manner dependent on its concentration added
IC50 [5]: 0.0177 µM
IC50 [6]: 0.0307 µM
IC50 ([7]; Homo sapiens, Macrophage, 72 h, read-out: IC50 value, VEGF): 0.204 µM
effect on VEGF production from macrophages ([7]; Macrophages, LPS): tended to suppress VEGF production from macrophages, but its effect was marginal
IC50 (IL-6 production): 0.188 µM
IC50 (IFN-γ production): 0.598 µM
IC50 (MCP-1 production): 0.0376 µM
IC50 (TNF-α production): 0.413 µM
IC50 (IL-1β production): 0.359 µM
IC50 (IL-18 production): 0.871 µM
elevation of C-reactive protein (CRP) levels [8]: suppress the elevation of C-reactive protein (CRP) levels in a dose-dependent manner
production of IL-6, IL-8 and other inflammatory cytokines [8]: suppress the production of IL-6, IL-8 and other inflammatory cytokines
autoproliferation of AML cell lines [9]: selectively suppress the autoproliferation
